In US5068247A, “2-aminopentanoic acid compounds and their use as immunosuppressants” (priority 1989, dated 1991):
≈ marks a conversion by molar mass, not a printed value. Where two headings read alike, the source gives them in different places.

Tests used:
Format in all cases: cell-based
[1] = tested on: IL-2 production in PHA-stimulated mouse spleen cells; test: suppression of IL-2 production in PHA-stimulated mouse spleen cells
Summary of the method: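 C3H/HeN male spleen cells (10^7 cells/ml, RPMI1640 + 20% FCS) stimulated with 10 μg/ml PHA; supernatants collected after culture. IL-2 activity titrated by two-fold serial dilution on IL-2-dependent CTLL-2 cells (2×10^5 cells/ml, 30% FCS), MTT read-out. Expressed as U/ml, the dilution giving 50% of maximal absorbance.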

[2] = tested on: mouse allogenic MLR (BALB/c mouse spleen cells stimulated with C57BL/6 mouse spleen cells); test: mouse allogenic mixed lymphocyte reaction (MLR), 3H-thymidine uptake; conditions: for 3H-thymidine uptake: Table 1A
Summary of the method: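 BALB/c responder spleen cells were mixed in equal amounts with mitomycin C-treated (40 μg/ml, 60 min, 37 °C) C57BL/6 stimulator spleen cells, each at 10^7 cells/ml in RPMI1640 with 20% FCS and 10^-4 M 2-mercaptoethanol. Blastogenesis was read as 3H-thymidine uptake (18.5 KBq/well, 4 h) after culture and expressed as % suppression. Compounds were dissolved in methanol, then diluted in medium.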

[3] = tested on: IL-3 production in PHA-stimulated mouse spleen cells; test: suppression of IL-3 production in PHA-stimulated mouse spleen cells
[4] = tested on: CTLL-2 cells; test: suppression of proliferation of IL-2-dependent mouse cell line CTLL-2 induced by IL-2; conditions: IL-2 50 U/ml; for inhibition at 0.001 µg/mL / inhibition at 0.01 µg/mL / inhibition at 0.1 µg/mL / inhibition at 1 µg/mL: Mus musculus, CTLL-2, 68 h; for inhibition at 0.001 µg/mL: read-out: Suppression, 0.001 μg/ml; for inhibition at 0.01 µg/mL: read-out: Suppression, 0.01 μg/ml; for inhibition at 0.1 µg/mL: read-out: Suppression, 0.1 μg/ml; for inhibition at 1 µg/mL: read-out: Suppression, 1 μg/ml
Method: IL-2-dependent mouse cell line CTLL-2 cells were suspended in the RPMI1640 culture medium supplemented with 30% FCS to the concentration of 4×10^5 cells/ml. Fifty μl of the cell suspension, 50 μl of 200 U/ml recombinant human IL-2 (rhIL-2) and 100 μl of the test substance were added to a 96-well flat-bottomed microtest plate. […] The percent suppression (%) was calculated by the following formula. [formula]

[5] = Mus musculus, 24 h, read-out: Suppression
[6] = Mus musculus, Lymphocyte, read-out: Suppression

## CCCCCCCCCCCCCCCC[C@@H](O)[C@H](O)[C@@](N)(CO)C(=O)O [Example 2]
[1]; 0.001 μg/ml
  IL-2 activity: 12.1 U/ml
[1]; 0.01 μg/ml
  IL-2 activity: 7.0 U/ml
[1]; 0.1 μg/ml
  IL-2 activity: 6.1 U/ml
[1]; 1 μg/ml
  IL-2 activity: 3.7 U/ml
[1]; [5]
  inhibition at 0.001 µg/mL: 0%
  inhibition at 0.01 µg/mL: 42.1%
  inhibition at 0.1 µg/mL: 49.6%
  inhibition at 1 µg/mL: 69.4%
[2]; 0.001 μg/ml
  3H-thymidine uptake: 17981 cpm
[2]; 0.01 μg/ml
  3H-thymidine uptake: 12011 cpm
[2]; 0.1 μg/ml
  3H-thymidine uptake: 2329 cpm
[2]; 1 μg/ml
  3H-thymidine uptake: 1869 cpm
[2]; Mus musculus, Lymphocyte, read-out: 50%-inhibition concentration (IC50) in mouse allogenic MLR
  IC50: 0.016 µg/mL (≈ 0.0411 µM)
[2]; [6]
  inhibition at 0.001 µg/mL: 2.7%
  inhibition at 0.01 µg/mL: 38.2%
  inhibition at 0.1 µg/mL: 95.8%
  inhibition at 1 µg/mL: 98.6%
[3]; 0.001 μg/ml
  IL-3 activity: 26.0 U/ml
[3]; 0.01 μg/ml
  IL-3 activity: 13.9 U/ml
[3]; 0.1 μg/ml
  IL-3 activity: 11.3 U/ml
[3]; 1 μg/ml
  IL-3 activity: 7.5 U/ml
[3]; [5]
  inhibition at 0.001 µg/mL: 29.3%
  inhibition at 0.01 µg/mL: 62.2%
  inhibition at 0.1 µg/mL: 69.3%
  inhibition at 1 µg/mL: 79.6%
[4]; 0.001 μg/ml, Table 6A
  optical density (OD570): 0.555
[4]; 0.001 μg/ml, Table 6B
  optical density (OD570): 0.898
[4]; 0.01 μg/ml, Table 6A
  optical density (OD570): 0.543
[4]; 0.01 μg/ml, Table 6B
  optical density (OD570): 0.880
[4]; 0.1 μg/ml, Table 6A
  optical density (OD570): 0.558
[4]; 0.1 μg/ml, Table 6B
  optical density (OD570): 0.774
[4]; 1 μg/ml, Table 6A
  optical density (OD570): 0.161
[4]; 1 μg/ml, Table 6B
  optical density (OD570): 0.508
[4]; Table 6A
  inhibition at 0.001 µg/mL: 5.3%
  inhibition at 0.01 µg/mL: 7.4%
  inhibition at 0.1 µg/mL: 4.8%
  inhibition at 1 µg/mL: 72.6%
[4]; Table 6B
  inhibition at 0.001 µg/mL: 6.7%
  inhibition at 0.01 µg/mL: 8.7%
  inhibition at 0.1 µg/mL: 20%
  inhibition at 1 µg/mL: 48.4%
